In the supplement of paper PMC10307832:

Assays:
Experiment in all cases: relative viability (nuclei count vs DMSO), 5 days (fraction); higher = more cells survive
201T = system: 201T
Summary of the method: (§1)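 Cells from lung cancer lines were seeded into 1536-well plates and, one day later, dosed by pin tool. Treatments were either a single drug or a fixed dose of an anchor drug with five library-drug doses (not always all listed) in √10 steps. After 5 days, nuclei were stained in a one-step fixation (final 0.05% Triton X-100, 1% formaldehyde, 1 ug/ml Hoechst) and counted on 4× images, and relative viability is the treated-to-vehicle nuclei ratio, as the median of duplicate plates.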

Calu-6 = system: Calu-6
Summary of the method: as §1

EBC-1 = system: EBC-1
Summary of the method: as §1

EMC-BAC-2 = system: EMC-BAC-2
Summary of the method: as §1

EPLC-272H = system: EPLC-272H
Summary of the method: as §1

HCC-78 = system: HCC-78
Summary of the method: as §1

IA-LM = system: IA-LM
Summary of the method: as §1

NCI-H1355 = system: NCI-H1355
Summary of the method: as §1

NCI-H1666 = system: NCI-H1666
Summary of the method: as §1

NCI-H1755 = system: NCI-H1755
Summary of the method: as §1

NCI-H1792 = system: NCI-H1792
Summary of the method: as §1

NCI-H1793 = system: NCI-H1793
Summary of the method: as §1

NCI-H1975 = system: NCI-H1975
Summary of the method: as §1

NCI-H2126 = system: NCI-H2126
Summary of the method: as §1

NCI-H2170 = system: NCI-H2170
Summary of the method: as §1

NCI-H2228 = system: NCI-H2228
Summary of the method: as §1

NCI-H441 = system: NCI-H441
Summary of the method: as §1

NCI-H520 = system: NCI-H520
Summary of the method: as §1

NCI-H727 = system: NCI-H727
Summary of the method: as §1

NCI-H838 = system: NCI-H838
Summary of the method: as §1

PC-3 [JPC-3] = system: PC-3 [JPC-3]
Summary of the method: as §1

SK-MES-1 = system: SK-MES-1
Summary of the method: as §1

SW 1573 = system: SW 1573
Summary of the method: as §1

For Nc1cccc2c1CN(C1CCC(=O)NC1=O)C2=O (stereo not given) [Lenalidomide] + CC1(C)CCC(c2ccc(Cl)cc2)=C(CN2CCN(c3ccc(C(=O)NS(=O)(=O)c4ccc(N[C@H](CCN5CCOCC5)CSc5ccccc5)c(S(=O)(=O)C(F)(F)F)c4)cc3)CC2)C1 [Navitoclax] (partner 0.5 µM), the relative viability (201T; first compound 0.253 µM) was 1.21, the relative viability (201T; first compound 0.8 µM) was 1.22 and the relative viability (201T; first compound 2.53 µM) was 1.19. It also gave a relative viability (201T; first compound 8 µM) of 1.22, a relative viability (Calu-6; first compound 0.253 µM) of 0.814 and a relative viability (Calu-6; first compound 0.8 µM) of 0.805. It also gave a relative viability (Calu-6; first compound 2.53 µM) of 0.803, a relative viability (Calu-6; first compound 8 µM) of 0.863 and a relative viability (EBC-1; first compound 0.253 µM) of 0.374. The relative viability (EBC-1; first compound 0.8 µM) was 0.399, the relative viability (EBC-1; first compound 2.53 µM) was 0.434 and the relative viability (EBC-1; first compound 8 µM) was 0.481. For the same molecule, the relative viability (EMC-BAC-2; first compound 0.253 µM) was 1.18, the relative viability (EMC-BAC-2; first compound 0.8 µM) was 1.15 and the relative viability (EMC-BAC-2; first compound 2.53 µM) was 1.33. For the same molecule, the relative viability (EMC-BAC-2; first compound 8 µM) was 0.975, the relative viability (EPLC-272H; first compound 0.253 µM) was 1.24 and the relative viability (EPLC-272H; first compound 2.53 µM) was 0.917. The relative viability (EPLC-272H; first compound 8 µM) was 0.741, the relative viability (HCC-78; first compound 0.253 µM) was 0.834 and the relative viability (HCC-78; first compound 0.8 µM) was 0.72. It also gave a relative viability (HCC-78; first compound 2.53 µM) of 0.842, a relative viability (HCC-78; first compound 8 µM) of 0.654 and a relative viability (IA-LM; first compound 0.253 µM) of 0.895. It also gave a relative viability (IA-LM; first compound 0.8 µM) of 0.715, a relative viability (IA-LM; first compound 2.53 µM) of 0.829 and a relative viability (IA-LM; first compound 8 µM) of 0.786. It also gave a relative viability (NCI-H1355; first compound 0.253 µM) of 1, a relative viability (NCI-H1355; first compound 0.8 µM) of 0.737 and a relative viability (NCI-H1355; first compound 2.53 µM) of 0.889. It also gave a relative viability (NCI-H1355; first compound 8 µM) of 0.561, a relative viability (NCI-H1666; first compound 0.253 µM) of 0.915 and a relative viability (NCI-H1666; first compound 0.8 µM) of 0.893. It also gave a relative viability (NCI-H1666; first compound 2.53 µM) of 0.837, a relative viability (NCI-H1666; first compound 8 µM) of 0.856 and a relative viability (NCI-H1755; first compound 0.253 µM) of 0.994. It also gave a relative viability (NCI-H1755; first compound 0.8 µM) of 1.01, a relative viability (NCI-H1755; first compound 2.53 µM) of 1.01 and a relative viability (NCI-H1755; first compound 8 µM) of 0.745. It also gave a relative viability (NCI-H1792; first compound 0.253 µM) of 0.74, a relative viability (NCI-H1792; first compound 0.8 µM) of 0.582 and a relative viability (NCI-H1792; first compound 2.53 µM) of 0.848. The relative viability (NCI-H1792; first compound 8 µM) was 0.364, the relative viability (NCI-H1793; first compound 0.253 µM) was 0.349 and the relative viability (NCI-H1793; first compound 0.8 µM) was 0.449. It also gave a relative viability (NCI-H1793; first compound 2.53 µM) of 0.426, a relative viability (NCI-H1793; first compound 8 µM) of 0.315 and a relative viability (NCI-H1975; first compound 0.253 µM) of 1.13. It also gave a relative viability (NCI-H1975; first compound 0.8 µM) of 1.07, a relative viability (NCI-H1975; first compound 2.53 µM) of 1.25 and a relative viability (NCI-H1975; first compound 8 µM) of 1.19. It also gave a relative viability (NCI-H2126; first compound 0.253 µM) of 0.798, a relative viability (NCI-H2126; first compound 0.8 µM) of 0.907 and a relative viability (NCI-H2126; first compound 2.53 µM) of 0.815. It also gave a relative viability (NCI-H2126; first compound 8 µM) of 0.688, a relative viability (NCI-H2170; first compound 0.253 µM) of 0.552 and a relative viability (NCI-H2170; first compound 0.8 µM) of 0.595. For the same molecule, the relative viability (NCI-H2170; first compound 2.53 µM) was 0.593, the relative viability (NCI-H2170; first compound 8 µM) was 0.481 and the relative viability (NCI-H2228; first compound 0.253 µM) was 0.821. For the same molecule, the relative viability (NCI-H2228; first compound 0.8 µM) was 0.711, the relative viability (NCI-H2228; first compound 2.53 µM) was 0.949 and the relative viability (NCI-H2228; first compound 8 µM) was 0.905. It also gave a relative viability (NCI-H441; first compound 0.253 µM) of 0.507, a relative viability (NCI-H441; first compound 0.8 µM) of 0.348 and a relative viability (NCI-H441; first compound 2.53 µM) of 0.52. The relative viability (NCI-H441; first compound 8 µM) was 0.513, the relative viability (NCI-H520; first compound 0.253 µM) was 0.958 and the relative viability (NCI-H520; first compound 0.8 µM) was 1.05. The relative viability (NCI-H520; first compound 2.53 µM) was 1.22, the relative viability (NCI-H520; first compound 8 µM) was 0.892 and the relative viability (NCI-H727; first compound 0.253 µM) was 0.449. For the same molecule, the relative viability (NCI-H727; first compound 2.53 µM) was 0.387, the relative viability (NCI-H727; first compound 8 µM) was 0.345 and the relative viability (NCI-H838; first compound 0.253 µM) was 1.15. For the same molecule, the relative viability (NCI-H838; first compound 0.8 µM) was 1.09, the relative viability (NCI-H838; first compound 2.53 µM) was 1.29 and the relative viability (NCI-H838; first compound 8 µM) was 1.1. It also gave a relative viability (PC-3 [JPC-3]; first compound 0.253 µM) of 0.752, a relative viability (PC-3 [JPC-3]; first compound 0.8 µM) of 0.771 and a relative viability (PC-3 [JPC-3]; first compound 2.53 µM) of 0.863. It also gave a relative viability (PC-3 [JPC-3]; first compound 8 µM) of 0.734, a relative viability (SK-MES-1; first compound 0.253 µM) of 1.12 and a relative viability (SK-MES-1; first compound 0.8 µM) of 1.15. The relative viability (SK-MES-1; first compound 2.53 µM) was 1.3, the relative viability (SK-MES-1; first compound 8 µM) was 1.17 and the relative viability (SW 1573; first compound 0.253 µM) was 0.931. For the same molecule, the relative viability (SW 1573; first compound 0.8 µM) was 0.911, the relative viability (SW 1573; first compound 2.53 µM) was 1.07 and the relative viability (SW 1573; first compound 8 µM) was 0.926.
